# pKd: −log10 of the molar value. “Also recorded” adds a separate entry of the source.
# Tests used:
# S. cerevisiae gal11Δ = assay: Drug sensitivity assay on agar, S. cerevisiae GAL11 deletion strain; type: cell-based; conditions: growth on YPD agar with increasing drug concentration
# Method: (§1) Fresh S. cerevisiae colonies were inoculated in 5 ml of YPD or SD selection medium, and grown overnight at 30° C. The cells were diluted to an OD600 of 0.2, and 2 μl were spotted on agar-based solid medium containing an increasing gradient of drugs (for example, ketoconazole, cycloheximide, or 4-NQO) in the agar. The plates were incubated at 30° C. for 2-3 days. Susceptibility of the C. glabrata mutants was tested by spotting serial dilutions of cells onto YPD agar plates supplemented with fluconazole or ketoconazole. The yeast strains were grown overnight at 30° C. in YPD liquid medium. Cells were diluted to an OD600 of 2.0 in PBS, and 4 μl of the cell suspension and tenfold serial dilutions of the cells were spotted onto plates. Growth was assessed after 1 day of incubation at 30° C.
# PDR5 gene = assay: Xenobiotic-induced transcription of Pdr1p/Pdr3p target genes by quantitative real-time RT-PCR; type: cell-based; conditions: S. cerevisiae, Pdr1p/Pdr3p-dependent, 20 min drug treatment
# Method: Yeast cultures were grown overnight with agitation in YPD at 30° C. The next day, cells were pelleted and washed twice with sterilized purified water (Millipore). Cells were then resuspended in 1% yeast extract and 2% peptone (YP) to an optical density (OD600) of 0.8, grown for another 16 hr at 30° C., then treated with different drugs for 20 min for quantitative RT-PCR, or 5 hr for β-galactosidase assay.
# Total RNA was extracted from 5 ml of yeast culture using the Qiagen RNeasy MiniKit. Two micrograms of total RNA was used to generate cDNA using the First-Strand cDNA Synthesis Kit (GE Healthcare). The cDNA mix was diluted tenfold, and 2 μl was used for real-time quantitative PCR with SYBR Green (Applied Biosystems) on an ABI Prism 7900HT Sequence Detection System (Applied Biosystems).
# Myc6-Pdr1p = biological target: T1, Myc6-Pdr1p (Saccharomyces cerevisiae, UniProt P12383); assay: Drug-binding and cold competition assay with 3H-ketoconazole; set-up: species or system S. cerevisiae; conditions: for competition of binding of radiolabelled ketoconazole to Pdr1p by unlabelled xenobiotic: unlabelled xenobiotic at 1,000-fold excess of KET
# T1 construct: N-terminal Myc-tagged full-length wild-type Pdr1p (Myc6-Pdr1pwt); made in house; host or cells: yeast (S. cerevisiae), immunopurified with anti-Myc 9E10 on Protein A/G beads
# Method: (§2) For co-immunoprecipitation, yeast cells were transformed with Myc6-Pdr1pwt and Gal11p-Flag2 (or Gal11pAKIX-Flag2). Cells were washed with 1×PBS after overnight culture in YPD medium, and then cultured in YP for another 24 hr. Cells were then treated with different concentrations of ketoconazole and cycloheximide (or ethanol for vehicle controls) for 1 hr. Yeast cell lysates were extracted in immunoprecipitation buffer (50 mM Tris-HCI, pH 8.0, 140 mM NaCl, 0.1 mM EDTA, 10% glycerol, 0.02% NP-40, 1 mM DTT, 0.25 mM PMSF, 1 mM benzamidine, 0.5 mgml^−1 aprotinin and Protease Inhibitor Cocktail (Complete, Roche)), with or without xenobiotics by vortexing in the presence of glass beads. The Flag-tagged proteins were then immunoprecipitated by adding anti-Flag M2 antibody-beads (Sigma) and incubating for 3 hr with mutating at 4 C. After washing five times with 1 ml of 0.25 M KCl IP buffer, bound proteins were eluted with 0.1 mgml^−1 Flag peptide (Sigma). Xenobiotics at the indicated concentrations were present at all steps of the co-immunoprecipitation, including washing. Immunoblotting was performed according to standard protocols. To immunopurify Myc6-Pdr1pwt or HA-Pdr1pwt, yeast whole-cell extract (in immunoprecipitation buffer) was incubated with anti-Myc (9E10) antibody or anti-HA (F-7) antibody, and a 50% mix of Protein A- and G-Sepharose beads (Amersham) at 4° C. for 3 hr. Beads were washed with IP buffer five times, and used for drug-binding experiments as outlined herein.
# Xenobiotic-binding experiments were performed essentially as described (Kapinsky & Lasar, 435 Nature 446-51 (2005)), with some modifications as explained herein. Radiolabelled ketoconazole (KET: [^3H]G), specific radioactivity 10 Ci mmol^−1, was purchased from American Radiolabelled Chemicals. Beads with either immunopurified proteins or GST recombinant proteins were incubated with KET ([^3H]G) in drug-binding buffer (10 mM K2HPO4, 10 mM KH2PO4, pH 7.0, 2 mM EDTA, 50 mM NaCl, 1 mM DTT, 0.5 mM CHAPS, 10% glycerol and protease inhibitors) at 4° C. for 3 hr with mixing in a volume of 500 μl. […]
# C. glabrata Cggal11AΔ = assay: Drug sensitivity growth assay, C. glabrata CgGAL11A deletion strain; type: cell-based; conditions: growth assays on YPD plates
# Method: as §1
# C. glabrata = assay: C. elegans liquid killing assay; type: in vivo; conditions: fluconazole 8 μg/ml; for survival of nematodes infected with wild-type C. glabrata under antifungal treatment: six-day experiment
# Method: The C. glabrata strains and lawns were grown and prepared as described previously. Breger, 3 PloS Pathogens, el8 (2007). The liquid medium killing assays were conducted as detailed in Breger, 2007, with a few changes. After the glp-4;sek-I worms were incubated at 25° C. for 2 days, they were washed off the nematode growth medium plates with M9 and transferred to C. glabrata lawns formed on Brain-Heart Infusion broth (Difco) agar plates. The worms were incubated on the lawns for 4 hr at 25° C., then washed off the plates with M9 buffer and allowed to crawl on unneeded Brain-Heart Infusion broth plates to remove yeast cells from their cuticles. Approximately 70-80 worms were then picked to wells in a six-well microtiter dish that contained 2 ml of liquid medium of 79% M9 buffer, 20% Brain-Heart Infusion broth, 10 μgml^−1 cholesterol in ethanol, and 90 μgml^−1 kanamycin, with the addition of 0.25% DMSO or 8 μgml^−1 fluconazole. The plates were incubated at 25° C. overnight and then examined at 24 hr intervals for survival. […] P values were calculated based on the entire six-day experiment with the log rank and Wilcoxon tests performed by STATA 6 statistical software (Stata, College Station, Tex.).
# CgPdr1p = assay: Binding of 3H-ketoconazole to immunopurified CgPdr1p; set-up: species or system C. glabrata; conditions: immunopurified Myc6-CgPdr1p on beads
# Method: as §2, with “Immunoblotting was performed according to standard protocols. To immunopurify Myc6-Pdr1pwt or HA-Pdr1pwt, yeast whole-cell extract (in immunoprecipitation buffer) was incubated with anti-Myc (9E10) antibody or anti-HA (F-7) antibody, and a 50% mix of Protein A- and G-Sepharose beads (Amersham) at 4° C. for 3 hr. Beads were washed with IP buffer five times, and used for drug-binding experiments as outlined herein.” left out
# Xenobiotic-binding experiments were performed essentially as described (Kapinsky & Lasar, 435 Nature 446-51 (2005)), with some modifications as explained herein. Radiolabelled ketoconazole (KET: [^3H]G), specific radioactivity 10 Ci mmol^−1, was purchased from American Radiolabelled Chemicals. […]
# [1] = test system: S. cerevisiae wild-type cells; assay: High throughput cell viability screen (OD600) with or without ketoconazole; type: cell-based; conditions: OD600, two-fold dilutions from 30 μg/mL, with ketoconazole
# Method: Briefly, S. cerevisiae or C. glabrata wild-type cells are grown to exponential growth phase and added to 384-well plates. Each well contains rich media with either (a) drug of interest or (b) drug of interest with ketoconazole. Serial 2-fold dilutions of compounds are tested to determine concentration-dependent effects upon cell viability. Cells are incubated at 30° C. and optical density (OD600) is measured to determine cell growth. Plates are set up in duplicate and compounds are scored for their ability to inhibit cell growth in the presence or absence of ketoconazole. For S. cerevisiae screening, wild-type inoculum cultures were grown in YPD (1% yeast extract, 2% bacto-peptone, 2% dextrose) at 30° C., 200 rpm overnight. On day 2, these cultures were expanded to log-phase growth in the morning (OD600˜0.500). On day 3, compounds of interest were added to 25 μL of YPD or YPD+10 μM ketoconazole at an initial concentration of 30 μg/mL and set up as 5 two-fold serial dilutions. Log-phase wild-type cultures with an OD600˜0.500 were diluted to an OD600 of 0.005 and added at an equal volume (25 μL) of wild-type cells to wells with compounds +/− ketoconazole. Initial OD600 values were read with a Perkin Elmer EnVision and plates incubated in a moist chamber at 30° C. OD600 was read at 24 hr, 48 hr, 72 hr and 96 hr. […]
# T1 sequence (P12383 whole entry): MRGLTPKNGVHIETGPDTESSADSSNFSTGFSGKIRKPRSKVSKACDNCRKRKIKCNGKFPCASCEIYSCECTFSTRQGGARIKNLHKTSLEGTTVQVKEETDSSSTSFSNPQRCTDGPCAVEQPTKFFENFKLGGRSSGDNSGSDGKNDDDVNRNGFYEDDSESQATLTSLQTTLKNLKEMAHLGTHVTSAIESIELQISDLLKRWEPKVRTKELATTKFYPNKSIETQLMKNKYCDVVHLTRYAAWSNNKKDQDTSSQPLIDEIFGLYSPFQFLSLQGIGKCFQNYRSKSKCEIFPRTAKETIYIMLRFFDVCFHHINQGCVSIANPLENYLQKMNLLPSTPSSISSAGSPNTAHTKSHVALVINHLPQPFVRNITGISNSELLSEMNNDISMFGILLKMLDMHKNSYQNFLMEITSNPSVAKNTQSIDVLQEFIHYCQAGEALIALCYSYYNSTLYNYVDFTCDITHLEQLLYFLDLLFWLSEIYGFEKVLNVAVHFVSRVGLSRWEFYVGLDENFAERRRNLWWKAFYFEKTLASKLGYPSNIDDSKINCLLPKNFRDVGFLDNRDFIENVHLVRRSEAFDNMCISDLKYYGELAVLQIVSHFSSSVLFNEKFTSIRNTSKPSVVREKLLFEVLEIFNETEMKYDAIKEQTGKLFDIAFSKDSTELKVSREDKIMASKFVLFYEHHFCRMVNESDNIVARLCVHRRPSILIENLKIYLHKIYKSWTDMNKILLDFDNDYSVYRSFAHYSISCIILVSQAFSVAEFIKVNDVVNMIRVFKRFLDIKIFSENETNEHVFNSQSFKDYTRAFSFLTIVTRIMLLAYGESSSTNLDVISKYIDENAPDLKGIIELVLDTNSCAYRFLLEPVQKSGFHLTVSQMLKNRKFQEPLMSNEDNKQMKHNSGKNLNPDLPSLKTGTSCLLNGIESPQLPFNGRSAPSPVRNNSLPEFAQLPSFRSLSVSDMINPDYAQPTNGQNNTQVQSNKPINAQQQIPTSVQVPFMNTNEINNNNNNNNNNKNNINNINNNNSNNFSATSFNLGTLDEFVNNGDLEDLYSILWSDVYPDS
Compound,sensitivity of GAL11 deletion strain to toxin/xenobiotic (S. cerevisiae gal11Δ),induction of expression of drug efflux pump PDR5 and other Pdr1p/Pdr3p target genes (PDR5 gene),competition of binding of radiolabelled ketoconazole to Pdr1p by unlabelled xenobiotic (Myc6-Pdr1p),sensitivity of CgGAL11A deletion strain to drug (C. glabrata Cggal11AΔ),survival of nematodes infected with wild-type C. glabrata under antifungal treatment (C. glabrata),also measured
O=[N+]([O-])c1cc[n+]([O-])c2ccccc12 [4-nitroquinoline oxide],striking sensitivity,–,–,–,–,–
C[C@@H]1C[C@@H]([C@H](O)CC2CC(=O)NC(=O)C2)C(=O)[C@@H](C)C1 [cycloheximide],striking sensitivity,induced,effectively competed,markedly increased sensitivity,–,–
OC(Cn1cncn1)(Cn1cncn1)c1ccc(F)cc1F [fluconazole],–,–,–,markedly increased sensitivity,completely resistant; also recorded: death of most nematodes within six days,survival of nematodes infected with Cggal11B or Cgmed1 deletion strains in the presence of antifungal (C. glabrata; Cggal11B or Cgmed1 deletion strains): little difference in survival rates; survival of nematodes infected with Cgpdr1 and Cggal11A deletion strains in the presence of antifungal (C. glabrata): significantly increased survival; survival of nematodes infected with Cgpdr1 and Cggal11A deletion strains in the presence of antifungal (C. glabrata; listed as Fluconazole): increased the lifespan of nematodes
CC(=O)N1CCN(c2ccc(OCC3COC(Cn4ccnc4)(c4ccc(Cl)cc4Cl)O3)cc2)CC1 (stereo not drawn) [ketoconazole],striking sensitivity,induced,effectively competed,markedly increased sensitivity,completely resistant,"direct binding of radiolabeled compound to CgPdr1p (CgPdr1p): binds directly; pKd (Myc6-Pdr1p; cold ligand competition, 0.1 μM 3H-KET, Myc6-Pdr1p, read-out: dissociation constant (KD) of binding to immunopurified Pdr1p): ~4.41"
CN(C/C=C/C#CC(C)(C)C)Cc1cccc2ccccc12 [terbinafine],–,–,–,–,–,growth inhibition in the presence of ketoconazole [1]: eliminate cell growth

# Source: patent publication US8557746B2, “High throughput screens for small-molecule inhibitors of the nuclear receptor-like pathway regulating multidrug resistance in fungi” (The General Hospital Corporation, priority 2009, dated 2013)
